According to patent publication US9464064B2, “HCV helicase inhibitors and methods of use thereof” (University of Kansas, priority 2011, dated 2016):
Non-standard residues stand in square brackets, D forms with d. Residues, ends and D or L forms follow the SMILES beside them. ξ: configuration not given here. *: point of attachment. ξNMe2Val = CC(C)C(C(=O)*)N(C)C; NMeV = CN[CH](C(=O)O)C(C)C; NHBn = c1ccc(CN*)cc1

Biological target: T1, HCV NS3 helicase NS3h_1b(con1) (Hepatitis C virus genotype 1b, UniProt Q9WMX2)
T1 construct: truncated C-terminally His-tagged NS3 proteins lacking the N-terminal protease, called NS3h; His-tag (C); made in house
T1 sequence (Q9WMX2 1192-1657): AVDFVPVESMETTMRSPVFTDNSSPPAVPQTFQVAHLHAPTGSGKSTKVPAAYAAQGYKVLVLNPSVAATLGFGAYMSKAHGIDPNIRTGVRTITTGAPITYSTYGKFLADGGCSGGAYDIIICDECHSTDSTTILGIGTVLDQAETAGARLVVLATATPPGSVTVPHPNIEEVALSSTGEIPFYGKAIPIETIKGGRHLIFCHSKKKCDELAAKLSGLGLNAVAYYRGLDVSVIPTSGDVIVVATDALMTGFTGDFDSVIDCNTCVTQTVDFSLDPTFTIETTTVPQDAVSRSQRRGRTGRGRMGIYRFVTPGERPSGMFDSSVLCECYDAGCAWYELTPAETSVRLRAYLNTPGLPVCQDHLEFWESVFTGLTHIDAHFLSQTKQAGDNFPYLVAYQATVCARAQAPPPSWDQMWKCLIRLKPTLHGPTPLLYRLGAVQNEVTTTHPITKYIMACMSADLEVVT
Experiment: MBHA screen of NCI mechanistic set library at 20 μM (percent inhibition, compound interference)
Format: biochemical
Conditions: compounds at 20 μM; for Inh. (%) (Inhibition): calculated from Equation 1
Method in brief: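 Molecular beacon-based DNA unwinding assay; compounds screened at 20 μM in triplicate, with DMSO-only negative and 500 nM dT20 positive controls. Fluorescence (ex 643/em 670 nm) was read before and 30 min after adding ATP to 1 mM. Percent inhibition came from the change relative to DMSO controls; interference from pre-ATP fluorescence versus DMSO controls.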

[1] = assay interference calculated with Equation 2 (fluorescence vs DMSO-only controls before ATP)
[2] = MBHA with DNA substrate, assay interference calculated with Equation 2

SMILES: CN(C)c1cccc(/C=C(\C#N)c2ccccc2)c1 [Compound 667251]
- Inh. (%) (Inhibition) (MBHA with a DNA substrate): −7.0%
- Int.* (Ratio) (Interference) [1]: 1.09 Ratio

SMILES: S=C1Nc2cnc3ccccc3c2SC1c1ccccc1 (stereo not drawn) [Compound 667467]
- Int.* (Ratio) (Interference) [2]: 0.89 Ratio
- Inh. (%) (Inhibition) (MBHA with DNA substrate): 33.3%

SMILES: C=C1CC(Cn2cc(Br)c(=O)[nH]c2=O)(c2ccc(-c3ccccc3)cc2)OC1=O (stereo not drawn) [Compound 668260]
- Int.* (Ratio) (Interference) [2]: 0.94 Ratio
- Inh. (%) (Inhibition) (MBHA with DNA substrate): 0.4%

SMILES: C=C1CC(COc2cc(=O)oc3ccccc23)(c2ccccc2)OC1=O (stereo not drawn) [Compound 668270]
- Int.* (Ratio) (Interference) [2]: 0.83 Ratio
- Inh. (%) (Inhibition) (MBHA with DNA substrate): 28.1%

SMILES: CC(C)C(NC(=O)C(C(C)C)N(C)C)C(=O)N(C)C(C(=O)N1CCCC1C(=O)N1CCCC1C(=O)NCc1ccccc1)C(C)C.Cl (stereo not drawn) [Compound 669356] (ξNMe2Val-V[NMeV]PP-NHBn; configuration not given here)
- Int.* (Ratio) (Interference) [2]: 1.08 Ratio
- Inh. (%) (Inhibition) (MBHA with DNA substrate): −9.2%

SMILES: O=C(ON=C1c2ccccc2C(Br)C(Br)c2ccccc21)c1ccccc1 (stereo not drawn) [Compound 670140]
- Int.* (Ratio) (Interference) [2]: 0.95 Ratio
- Inh. (%) (Inhibition) (MBHA with DNA substrate): 15.2%

SMILES: CN(C)CCOC1(Cc2ccc(Cl)cc2Cl)CCC(C(C)(C)C)CC1.Cl (stereo not drawn) [Compound 670224]
- Int.* (Ratio) (Interference) [2]: 0.88 Ratio
- Inh. (%) (Inhibition) (MBHA with DNA substrate): 17.9%

SMILES: Cc1ccc(CC2(OCCN(C)C)CCC(C(C)(C)C)CC2)cc1.O=C(O)/C=C/C(=O)O (stereo not drawn) [Compound 670225]
- Int.* (Ratio) (Interference) [2]: 1.04 Ratio
- Inh. (%) (Inhibition) (MBHA with DNA substrate): −16.0%

SMILES: CN(C)CCOC1(Cc2ccc(F)cc2)CCC(C(C)(C)C)CC1.O=C(O)/C=C/C(=O)O (stereo not drawn) [Compound 670226]
- Int.* (Ratio) (Interference) [2]: 1.11 Ratio
- Inh. (%) (Inhibition) (MBHA with DNA substrate): −2.6%

SMILES: Cc1ccc(CC2(OCCN(C)C)CCC(C(C)(C)C)CC2)cc1.O=C(O)/C=C/C(=O)O (stereo not drawn) [Compound 670229]
- Inh. (%) (Inhibition) (MBHA with a DNA substrate): −28.8%
- Int.* (Ratio) (Interference) [1]: 1.17 Ratio

SMILES: CC(=O)c1sc2c(c1OC(=O)c1ccc(Cl)cc1Cl)c(=O)n(-c1ccccc1)c(=S)n2-c1ccccc1 [Compound 671136]
- Int.* (Ratio) (Interference) [2]: 0.90 Ratio
- Inh. (%) (Inhibition) (MBHA with DNA substrate): 1.2%

SMILES: COc1ccc(N=C2C(=Nc3ccc(OC)cc3)N(c3ccc(N(C)C)cc3)C(=S)N2c2ccc(OC)cc2)cc1 [Compound 671394]
- Inh. (%) (Inhibition) (MBHA with a DNA substrate): −5.4%
- Int.* (Ratio) (Interference) [1]: 0.86 Ratio

SMILES: N[C@@H](Cc1ccc2oc3cc(=O)c4ccccc4c-3nc2c1)C(=O)O [Compound 672425]
- Int.* (Ratio) (Interference) [2]: 0.89 Ratio
- Inh. (%) (Inhibition) (MBHA with DNA substrate): −11.4%

SMILES: COC(=O)C1CCC(=O)N1C(c1ccc(OC)cc1)c1cc(OC)c(OC)c(OC)c1 (stereo not drawn) [Compound 673622]
- Int.* (Ratio) (Interference) [2]: 1.08 Ratio
- Inh. (%) (Inhibition) (MBHA with DNA substrate): −9.6%

SMILES: NC(=O)N/N=C1\CC2C3CC4C2C4C13 (stereo not drawn) [Compound 673912]
- Inh. (%) (Inhibition) (MBHA with a DNA substrate): −4.0%
- Int.* (Ratio) (Interference) [1]: 1.04 Ratio

SMILES: Cc1cc(-c2nc3ccccc3s2)ccc1N [Compound 674495]
- Int.* (Ratio) (Interference) [2]: 0.98 Ratio
- Inh. (%) (Inhibition) (MBHA with DNA substrate): −7.5%

SMILES: CCCN(CCC)C(=S)Sc1nc(C)nc(N2CCN(c3nc(C)nc(SC(=S)N(CCC)CCC)c3[N+](=O)[O-])CC2)c1[N+](=O)[O-] [Compound 675593]
- Inh. (%) (Inhibition) (MBHA with a DNA substrate): −3.8%
- Int.* (Ratio) (Interference) [1]: 1.04 Ratio

SMILES: COc1ccccc1[S+]([O-])Nc1ccccc1 (stereo not drawn) [Compound 676561]
- Int.* (Ratio) (Interference) [2]: 0.96 Ratio
- Inh. (%) (Inhibition) (MBHA with DNA substrate): 17.1%

SMILES: O=C(O)/C=C\C(=O)O.[N-]=[N+]=Nc1ccc2c(c1)Sc1ccccc1N2CCCCN1CCN(Cc2ccc(C(=O)c3ccccc3)cc2)CC1 [Compound 676963]
- Int.* (Ratio) (Interference) [2]: 0.46 Ratio
- Inh. (%) (Inhibition) (MBHA with DNA substrate): −1.7%

SMILES: COc1ccc(NC(=O)CC(=O)N2N=C(C)C(N=Nc3ccc(S(=O)(=O)c4ccc(N=NC5C(=O)N(C(=O)CC(=O)Nc6ccc(OC)cc6)N=C5C)cc4)cc3)C2=O)cc1 (stereo not drawn) [Compound 677392]
- Int.* (Ratio) (Interference) [2]: 1.00 Ratio
- Inh. (%) (Inhibition) (MBHA with DNA substrate): −18.1%

SMILES: COc1ccc(OC)c2nc3c(C(=O)NCCN(C)C)cccc3nc12.Cl [Compound 678917]
- Int.* (Ratio) (Interference) [2]: 0.89 Ratio
- Inh. (%) (Inhibition) (MBHA with DNA substrate): 28.1%

SMILES: CN(C)CCNC(=O)c1cccc2[nH]c(-c3ccncc3)nc12.Cl [Compound 678932]
- Int.* (Ratio) (Interference) [2]: 1.05 Ratio
- Inh. (%) (Inhibition) (MBHA with DNA substrate): 0.6%

SMILES: COC(=O)c1c[nH]c2c1-c1cc(C(=O)OCc3ccccc3)n(S(=O)(=O)c3ccc(C)cc3)c1C(=O)C2=O [Compound 679524]
- Int.* (Ratio) (Interference) [2]: 0.85 Ratio
- Inh. (%) (Inhibition) (MBHA with DNA substrate): −2.5%

SMILES: COC(=O)c1cc(-c2c[nH]cc2C(=O)OCc2ccccc2)cn1S(=O)(=O)c1ccc(C)cc1 [Compound 679527]
- Int.* (Ratio) (Interference) [2]: 0.98 Ratio
- Inh. (%) (Inhibition) (MBHA with DNA substrate): 1.5%

SMILES: CC1=C/C(=N\OCC(=O)O)CC(c2ccc(C(C)C)cc2)C1 (stereo not drawn) [Compound 680506]
- Inh. (%) (Inhibition) (MBHA with a DNA substrate): 10.2%
- Int.* (Ratio) (Interference) [1]: 0.92 Ratio

SMILES: Cl.NC1(CCNC(=O)c2ccccc2)CCN(C(=O)c2ccccc2)CC1 [Compound 680509]
- Inh. (%) (Inhibition) (MBHA with a DNA substrate): −35.7%
- Int.* (Ratio) (Interference) [1]: 0.99 Ratio

SMILES: Cc1cc(N(C)C)ccc1N=Nc1ccc2ncccc2c1 [Compound 680516]
- Int.* (Ratio) (Interference) [2]: 0.93 Ratio
- Inh. (%) (Inhibition) (MBHA with DNA substrate): −1.4%

SMILES: N#CC(NCc1cccc(CNC(C#N)c2ccccc2)c1)c1ccccc1 (stereo not drawn) [Compound 681730]
- Int.* (Ratio) (Interference) [2]: 0.88 Ratio
- Inh. (%) (Inhibition) (MBHA with DNA substrate): −2.0%

SMILES: CCC(C#N)(c1ccccc1)N(CCc1ccccc1)C(=O)c1ccccc1 (stereo not drawn) [Compound 681741]
- Int.* (Ratio) (Interference) [2]: 0.92 Ratio
- Inh. (%) (Inhibition) (MBHA with DNA substrate): −16.2%

SMILES: N#CC(c1ccccc1)N(CCCCCCN(C(=O)c1ccccc1)C(C#N)c1ccccc1)C(=O)c1ccccc1 (stereo not drawn) [Compound 681744]
- Int.* (Ratio) (Interference) [2]: 0.98 Ratio
- Inh. (%) (Inhibition) (MBHA with DNA substrate): 20.4%

SMILES: COc1ccc(-c2cc(-c3ccccc3)nc3c2CC(=O)Nc2ccccc2-3)cc1OC [Compound 682769]
- Int.* (Ratio) (Interference) [2]: 0.96 Ratio
- Inh. (%) (Inhibition) (MBHA with DNA substrate): −7.3%

SMILES: NC1N=C(c2ccc(Cl)cc2)C2=C(N1)c1ccccc1CC2 (stereo not drawn) [Compound 682864]
- Int.* (Ratio) (Interference) [2]: 0.97 Ratio
- Inh. (%) (Inhibition) (MBHA with DNA substrate): −1.8%

SMILES: COc1ccc2cc(CN3CCC(C4CCN(Cc5ccc6cc(OC)ccc6c5)CC4)CC3)ccc2c1.Cl [Compound 683792]
- Int.* (Ratio) (Interference) [2]: 0.93 Ratio
- Inh. (%) (Inhibition) (MBHA with DNA substrate): −8.0%

SMILES: O=C1Cc2c(-c3ccccc3)cc(-c3cccc(Cl)c3)nc2-c2ccccc2N1 [Compound 684480]
- Inh. (%) (Inhibition) (MBHA with a DNA substrate): −35.3%
- Int.* (Ratio) (Interference) [1]: 1.04 Ratio

SMILES: CCOC(=O)NC(Nc1ccc(F)cc1)(C(=O)OCC)C(F)(F)F (stereo not drawn) [Compound 684845]
- Inh. (%) (Inhibition) (MBHA with a DNA substrate): −5.0%
- Int.* (Ratio) (Interference) [1]: 0.91 Ratio

SMILES: COC(=O)C1=C(C(=O)OC)SC2(S1)C(C(=O)OC)=C(C(=O)OC)Sc1c2ssc1=O [Compound 686349]
- Int.* (Ratio) (Interference) [2]: 0.85 Ratio
- Inh. (%) (Inhibition) (MBHA with DNA substrate): −14.4%

SMILES: CC(C)[Si]1(C(C)C)OCC2OC(n3cnc4c(N)ncnc43)C(N)C2O[Si](C(C)C)(C(C)C)O1 (stereo not drawn) [Compound 687330]
- Int.* (Ratio) (Interference) [2]: 0.91 Ratio
- Inh. (%) (Inhibition) (MBHA with DNA substrate): −12.1%

SMILES: COc1ccc(/C=C2\CCCc3ccccc3C2=O)cc1 [Compound 687667]
- Inh. (%) (Inhibition) (MBHA with a DNA substrate): −29.0%
- Int.* (Ratio) (Interference) [1]: 1.00 Ratio

SMILES: C=CC(=O)N1C/C(=C\c2ccc(Cl)cc2)C(=O)/C(=C/c2ccc(Cl)cc2)C1 [Compound 687849]
- Inh. (%) (Inhibition) (MBHA with a DNA substrate): −5.2%
- Int.* (Ratio) (Interference) [1]: 0.93 Ratio

SMILES: C=CC(=O)N1C/C(=C\c2ccc([N+](=O)[O-])cc2)C(=O)/C(=C/c2ccc([N+](=O)[O-])cc2)C1 [Compound 687852]
- Int.* (Ratio) (Interference) [2]: 0.94 Ratio
- Inh. (%) (Inhibition) (MBHA with DNA substrate): −11.6%

SMILES: CNC(=O)c1cc(NC(=O)N(CCC#N)CCN(C(=O)N[C@@H](Cc2ccccc2)C(=O)N[C@@H](CC(C)C)C(=O)NC)c2ccccc2)ccc1OC [Compound 688363]
- Int.* (Ratio) (Interference) [2]: 0.96 Ratio
- Inh. (%) (Inhibition) (MBHA with DNA substrate): −1.6%

SMILES: COc1cc(OC)c2c(C)cc(=O)oc2c1 [Compound 688795]
- Inh. (%) (Inhibition) (MBHA with a DNA substrate): 9.3%
- Int.* (Ratio) (Interference) [1]: 1.02 Ratio

SMILES: CCCCCC(/C=C/[C@@H]1CC(=O)C[C@H]1O[Si](C)(C)C(C)(C)C)OCOCCOC (stereo partly drawn) [Compound 689228]
- Int.* (Ratio) (Interference) [2]: 1.04 Ratio
- Inh. (%) (Inhibition) (MBHA with DNA substrate): −10.4%

SMILES: O=C(OCC12CC3CC(CC(C3)C1)C2)c1ccc(NCc2cc(O)ccc2O)cc1 [Compound 689857]
- Inh. (%) (Inhibition) (MBHA with a DNA substrate): −22.3%
- Int.* (Ratio) (Interference) [1]: 0.87 Ratio

SMILES: COc1ccc2nc3cc([N+](=O)[O-])ccc3c(NNc3ccccc3)c2c1 [Compound 689872]
- Int.* (Ratio) (Interference) [2]: 1.01 Ratio
- Inh. (%) (Inhibition) (MBHA with DNA substrate): −2.4%
